# Assay results as given in ChEMBL document CHEMBL5634150, “Design, synthesis and biological evaluation of novel dihydroquinolin-4(1H)-one derivatives as novel tubulin polymerization inhibitors” (Eur J Med Chem, 2023).
# pIC50: −log10 of the molar value. Active and inactive are the calls of the source. The rule behind the calls is not given here.
# How the values were obtained:
# [1] = Metabolic stability in mouse liver microsomes assessed as half life at 100 uM measure upto 60 mins in presence of NADPH by LC-MS/MS analysis; assay type: ADME, Microsome
# [2] = target: T1, Tubulin (Homo sapiens) (UniProt P68371+Q9H4B7+P0DPH7+P68366+Q13509+Q71U36+P04350+Q3ZCM7+P07437+P68363+Q9BQE3+Q6PEY2+Q13885+Q9BVA1+Q9BUF5); test: Inhibition of [3H]colchicine binding to tubulin (unknown origin) at 5 uM incubated for 2 hrs by scintillation counter analysis relative to control; assay type: protein-complex assay
# [3] = target: Tubulin; test: (§1) Inhibition of tubulin polymerization (unknown origin) preincubated for 5 mins and measured every 5 mins for 60 mins by absorbance based analysis; assay type: protein-complex assay, Homo sapiens
# [4] = target: T1, Tubulin (Homo sapiens); test: as §1; assay type: protein-complex assay; conditions: dose 5-10 µM, time 65.0 min
# [5] = system: H22; test: Antitumor activity against mouse H22 cells allografted in mouse model assessed as decrease in MVD cells at 20 mg/kg by immunohistochemistry analysis; assay type: functional, organism-based
# [6] = system: K562; test: Induction of cell cycle arrest in human K562 cells assessed as accumulation of cells at S phase at 6 nM incubated overnight by PI staining based flow cytometry analysis (reference value: 15.98%); assay type: functional
# [7] = system: HUVEC; test: Anti-angiogenesis activity in HUVEC cells assessed as reduction in […] at 400 nM measured after 24 hrs by wound healing assay relative to control; assay type: functional, Homo sapiens; set-up: scale not given: the % may be the effect or the level left
# [8] = target: T1, Tubulin (Homo sapiens); test: Inhibition of [3H]colchicine binding to tubulin (unknown origin) at 1 uM incubated for 2 hrs by scintillation counter analysis relative to control; assay type: protein-complex assay
# [9] = system: H22; test: Antitumor activity against mouse H22 cells allografted in mouse model assessed as tumor growth inhibition at 20 mg/kg,iv administered once daily for 3 weeks relative to control; assay type: functional; conditions: H22, 504 h, read-out: TGI
# [10] = system: K562; test: Induction of apoptosis in human K562 cells at 1.5 nM measured after 48 hrs by Annexin V-FITC/7-AAD staining based flow cytometric analysis relative to control; assay type: functional
# [11] = system: A549; test: Antiproliferative activity against human A549 cells assessed as inhibition of cell growth measured after 72 hrs by MTT assay; assay type: functional, cell-based; conditions: A549, 72 h
# [12] = system: K562; test: Induction of cell cycle arrest in human K562 cells assessed as accumulation of cells at S phase at 3 nM incubated overnight by PI staining based flow cytometry analysis (reference value: 15.98%); assay type: functional
# [13] = Metabolic stability in mouse plasma assessed as half life at 1 uM and measured upto 3 hrs by LC-MS/MS analysis; assay type: ADME, cell-free
# [14] = system: K562; test: Induction of apoptosis in human K562 cells assessed as downregulation of bcl-2 level at upto 6 nM measured after 48 hrs by Western blot analysis; assay type: functional, cell-based
# [15] = Antiproliferative activity against human HFL1 cells assessed as inhibition of cell growth measured after 72 hrs by MTT assay; assay type: toxicity, cell-based
# [16] = system: K562; test: Induction of cell cycle arrest in human K562 cells assessed as accumulation of cells at G1 phase at 3 nM incubated overnight by PI staining based flow cytometry analysis (reference value: 78.45%); assay type: functional
# [17] = system: HepG2; test: Antiproliferative activity against human HepG2 cells assessed as inhibition of cell growth measured after 72 hrs by MTT assay; assay type: functional, cell-based; conditions: HepG2, 72 h
# [18] = system: MDA-MB-231; test: Antiproliferative activity against human MDA-MB-231 cells assessed as inhibition of cell growth measured after 72 hrs by MTT assay; assay type: functional, cell-based; conditions: MDA-MB-231, 72 h
# [19] = system: K562; test: Induction of cell cycle arrest in human K562 cells assessed as accumulation of cells at G1 phase at 1.5 nM incubated overnight by PI staining based flow cytometry analysis (reference value: 78.45%); assay type: functional
# [20] = system: A549; test: Antiproliferative activity against human A549 cells assessed as inhibition of cell growth at 0.01 uM measured after 72 hrs by MTT assay relative to control; assay type: functional
# [21] = Toxicity in mouse assessed as effect on kidney at 20 mg/kg by H and E staining based microscopic analysis; assay type: organism-based; conditions: in vivo
# [22] = system: A549; test: Antiproliferative activity against human A549 cells assessed as inhibition of cell growth at 0.1 uM measured after 72 hrs by MTT assay relative to control; assay type: functional
# [23] = Toxicity in mouse assessed as effect on lung at 20 mg/kg by H and E staining based microscopic analysis; assay type: organism-based; conditions: in vivo
# [24] = Toxicity in mouse assessed as effect on spleen at 20 mg/kg by H and E staining based microscopic analysis; assay type: organism-based; conditions: in vivo
# [25] = Toxicity in mouse assessed as effect on heart at 20 mg/kg by H and E staining based microscopic analysis; assay type: organism-based; conditions: in vivo
# [26] = system: K562; test: Induction of cell cycle arrest in human K562 cells assessed as accumulation of cells at S phase at 1.5 nM incubated overnight by PI staining based flow cytometry analysis (reference value: 15.98%); assay type: functional
# [27] = system: K562; test: Induction of cell cycle arrest in human K562 cells assessed as accumulation of cells at G1 phase at 6 nM incubated overnight by PI staining based flow cytometry analysis (reference value: 78.45%); assay type: functional
# [28] = system: K562; test: Antiproliferative activity against human K562 cells assessed as inhibition of cell growth measured after 72 hrs by MTT assay; assay type: functional, cell-based; conditions: K562, 72 h
# [29] = system: A549; test: Antiproliferative activity against human A549 cells assessed as inhibition of cell growth at 1 uM measured after 72 hrs by MTT assay relative to control; assay type: functional
# [30] = system: K562; test: Induction of cell cycle arrest in human K562 cells assessed as accumulation of cells at G2/M phase at 3 nM incubated overnight by PI staining based flow cytometry analysis (reference value: 5.57%); assay type: functional
# [31] = system: K562; test: Induction of apoptosis in human K562 cells at 6 nM measured after 48 hrs by Annexin V-FITC/7-AAD staining based flow cytometric analysis relative to control; assay type: functional
# [32] = system: K562; test: Induction of cell cycle arrest in human K562 cells assessed as accumulation of cells at G2/M phase at 1.5 nM incubated overnight by PI staining based flow cytometry analysis (reference value: 5.57%); assay type: functional
# [33] = system: K562; test: Induction of apoptosis in human K562 cells assessed as increase in bax level at upto 6 nM measured after 48 hrs by Western blot analysis; assay type: functional, cell-based
# [34] = Metabolic stability in mouse plasma assessed as compound remaining at 1 uM and measured at 3 hrs by LC-MS/MS analysis; assay type: ADME, cell-free; conditions: read-out: Stability
# [35] = system: A549/TR; test: Antiproliferative activity against human A549/Taxol cells assessed as inhibition of cell growth measured after 72 hrs by MTT assay; assay type: functional, cell-based
# [36] = system: HUVEC; test: Anti-angiogenesis activity in HUVEC cells assessed as disruption of capillary tube structure at 1.5 to 6 nM measured after 6 hrs by contrast microscopy based analysis; assay type: functional, cell-based; conditions: Homo sapiens, dose 1.5-6 nM
# [37] = Resistance index, ratio of IC50 for antiproliferative activity against human A549/Taxol cells to IC50 for antiproliferative activity against human A549 cells; assay type: functional
# [38] = Metabolic stability in mouse liver microsomes assessed as intrinsic clearance at 100 uM measure upto 60 mins in presence of NADPH by LC-MS/MS analysis; assay type: ADME, Microsome; conditions: 1 h
# [39] = system: Cell membrane; test: Induction of mitochondrial membrane depolarization in human K562 cells assessed as increase in green fluorescence intensity at incubated for 48 hrs by JC-1 staining based flow cytometry; assay type: cell membranes; conditions: dose 1.5-6 nM
structure (smiles),measurement,setting,value
CCn1ccc2cc(N3CCC(=O)c4c3cc(OC)c(OC)c4OC)ccc21,half-life at 100 µM,[1],10.7 min
same,inhibition,[2],75.9%
same,pIC50,[3],5.51
same,inhibition,[4],Dose-Dependent Effect
same,Activity,[5],Active
same,Activity,[6],30.18%
same,Activity,[7],<50%
same,inhibition,[8],63.9%
same,inhibition in vivo at 20 mg/kg,[9],63.3%
same,Activity,[10],11.44%
same,pIC50,[11],8.10
same,Activity,[12],28.04%
same,half-life at 1 µM,[13],> 180 min
same,Activity,[14],Active
same,IC50 at 72 h,[15],62 nM
same,Activity,[16],59.63%
same,pIC50,[17],8.05
same,pIC50,[18],7.62
same,Activity,[19],66.8%
same,inhibition at 0.01 µM,[20],73.6%
same,Activity,[21],Non-Toxic
same,inhibition at 0.1 µM,[22],78.3%
same,Activity,[23],Non-Toxic
same,Activity,[24],Non-Toxic
same,Activity,[25],Non-Toxic
same,Activity,[26],22.58%
same,Activity,[27],47.52%
same,pIC50,[28],8.52
same,inhibition at 1 µM,[29],79%
same,Activity,[30],12.33%
same,Activity,[31],45.82%
same,Activity,[32],10.62%
same,Activity,[33],Active
same,"remaining at 3 h, 1 µM",[34],105%
same,pIC50,[35],7.37
same,Activity,[36],Active
same,Ratio IC50,[37],5.38
same,CLH,[38],129 µL/min/mg
same,Activity,[39],Dose-Dependent Effect
